Measured values from patent US20080241904A1, “PROCESS FOR PRODUCING ISOMALTOSE AND USES THEREOF” (KABUSHIKI KAISHA HAYASHIBARA SEIBUTSU KAGAKU KENKYUJO, priority 2001, published 2008).

Legend:
Type in all cases: biochemical
[1] = tested on: α-isomaltosylglucosaccharide-forming enzyme from Bacillus globisporus C11 strain; assay: Specificity of saccharide transferring reaction acceptor, enzyme of Strain C11; settings: 1.6% acceptor, 4% PINE-DEX #100 as donor, one unit/g donor, 30° C., pH 6.0, 24 hours; GLC or HPLC
Method: (§1) Using different saccharides, it was tested whether the saccharides were used as saccharide transferring reaction acceptors for the α-isomaltosylglucosaccharide-forming enzyme. A 1.6% solution, as a solution of saccharide transferring reaction acceptor, of D-glucose, D-xylose, L-xylose, D-galactose, D-fructose, D-mannose, D-arabinose, D-fucose, L-sorbose, L-rhamnose, methyl-α-glucopyranoside (methyl-α-glucose), methyl-β-glucopyranoside ([…]), N-acetyl-glucosamine, sorbitol, α,α-trehalose, isomaltose, isomaltotriose, cellobiose, gentibiose, maltitol, lactose, sucrose, α-cyclodextrin, β-cyclodextrin, or γ-cyclodextrin, was prepared. To each solution with a saccharide concentration was added “PINE-DEX #100”, a partial starch hydrolysate, as a saccharide donor, to give a concentration of 4%, and admixed with one unit/g saccharide donor, d.s.b., of either of purified specimens of α-isomaltosylglucosaccharide-forming enzyme from Bacillus globisporus C9 strain obtained by the method in Experiment 2-1, Bacillus globisporus C11 strain obtained by the method in Experiment 4-1. The resulting mixture solutions were incubated at 30° C. and pH 6.0 except that the enzyme from Arthrobacter globiformis A19 strain was incubated at pH 8.4 for 24 hours. The reaction mixtures of the post-enzymatic reactions were analyzed on gas chromatography (abbreviated as “GLC” hereinafter) for monosaccharides and disaccharides as acceptors, and on HPLC for trisaccharides as acceptors to confirm whether these saccharides could be used as their saccharide transferring reaction acceptors. In the case of performing GLC, the following apparatuses and conditions are used: GLC apparatus, “GC-16A” commercialized by Shimadzu Corporation, Tokyo, Japan; column, a stainless-steel column, 3 mm in diameter and 2 m in length, packed with 2% “SILICONE OV-17/CHROMOSOLV W”, commercialized by GL Sciences Inc., Tokyo, Japan; carrier gas, nitrogen gas at a flow rate of 40 ml/min under temperature conditions of increasing from 160° C. to 320° C. at an increasing temperature rate of 7.5° C./min; and detection, a hydrogen flame ionization detector.
(§2) In the case of HPLC analysis, the apparatuses and conditions used were: HPLC apparatus, “CCPD” commercialized by Tosoh Corporation, Tokyo, Japan; column, “ODS-AQ-303” commercialized by YMC Co., Ltd., Tokyo, Japan; eluent, water at a flow rate of 0.5 ml/min; and detection, a differential refractometer.

[2] = tested on: α-isomaltosylglucosaccharide-forming enzyme from Bacillus globisporus C9 strain; assay: Specificity of saccharide transferring reaction acceptor, enzyme of Strain C9; settings: 1.6% acceptor, 4% PINE-DEX #100 as donor, one unit/g donor, 30° C., pH 6.0, 24 hours; GLC or HPLC
Method: as §1, §2

[3] = tested on: α-isomaltosylglucosaccharide-forming enzyme from Bacillus globisporus C9; assay: Action of α-isomaltosylglucosaccharide-forming enzyme on saccharides as substrates (TLC), enzyme of Strain C9; design: key: −: it showed no change; +: it showed a slight reduction of the color of substrate spot and the formation of other reaction product; ++: it showed a high reduction of the color of substrate spot and the formation of other reaction product; +++: it showed a substantial disappearance of the color of substrate spot and the formation of other reaction product; settings: two units/g substrate, substrate 2% (w/v), 30° C., pH 6.0, 24 hours
Method: (§3) The action of α-isomaltosylglucosaccharide-forming enzyme on saccharides as substrates was tested. First, a solution of maltose, maltotriose, maltotetraose, maltopentaose, maltohexaose, maltoheptaose, isomaltose, isomaltotriose, panose, isopanose, α,α-trehalose (may be abbreviated as “trehalose” hereinafter), kojibiose, nigerose, neotrehalose, cellobiose, gentibiose, maltitol, maltotriitol, lactose, sucrose, erlose, selaginose, maltosyl glucoside, or isomaltosyl glucoside was prepared. To each of the above solutions was added two units/g substrate of the purified specimen of α-isomaltosylglucosaccharide-forming enzyme from Bacillus globisporus C9 in Experiment 2-1 or Bacillus globisporus C11 in Experiment 4-1, and each resulting solution was adjusted to give a substrate concentration of 2% (w/v) and incubated at 30° C. and pH 6.0 for 24 hours. The solutions before and after the enzymatic reactions were respectively subjected to thin-layer chromatography (abbreviated as “TLC” hereinafter). TLC was carried out in such a manner of separating saccharides by developing the solutions twice each using, as a developer, a mixture solution of n-butanol, pyridine, and water (=6:4:1), and, as a thin-layer plate, “[…] 60”, an aluminum plate (20×20 cm) for TLC commercialized by Merck & Co., Inc., Rahway, USA.; detecting the total saccharides in each mixture solution by spraying a mixture of sulfuric acid and methanol onto the aluminum plates to develop color of the total saccharides and detecting non-reducing saccharides in each mixture solution by the diphenylamine-aniline method.

[4] = tested on: α-isomaltosylglucosaccharide-forming enzyme from Bacillus globisporus C11; assay: Action of α-isomaltosylglucosaccharide-forming enzyme on saccharides as substrates (TLC), enzyme of Strain C11; design: key: −: it showed no change; +: it showed a slight reduction of the color of substrate spot and the formation of other reaction product; ++: it showed a high reduction of the color of substrate spot and the formation of other reaction product; +++: it showed a substantial disappearance of the color of substrate spot and the formation of other reaction product; settings: two units/g substrate, substrate 2% (w/v), 30° C., pH 6.0, 24 hours
Method: as §3

In the case of `OC[C@H]1O[C@H](OC[C@H]2OC(O)[C@H](O)[C@@H](O)[C@@H]2O)[C@H](O)[C@@H](O)[C@@H]1O` (stereo partly drawn) [Isomaltose, isomaltose], the “Product of saccharide transferring reaction, Enzyme of Strain C11” value (“Product … of Strain C11” below) [1] is reported as “++ (a saccharide-transferred product was detected in an amount of at least ten percent through transferring reaction to acceptor)”, the “Product of saccharide transferring reaction, Enzyme of Strain C9” value (“Product … of Strain C9” below) [2] is reported as “++ (a saccharide-transferred product was detected in an amount of at least ten percent through transferring reaction to acceptor)” and the “Enzymatic action, Enzyme of Strain C9” value [3] is reported as “−”. The “Enzymatic action, Enzyme of Strain C11” value [4] was “−”.
With `OC[C@H]1O[C@H](OC[C@H]2O[C@H](OC[C@H]3OC(O)[C@H](O)[C@@H](O)[C@@H]3O)[C@H](O)[C@@H](O)[C@@H]2O)[C@H](O)[C@@H](O)[C@@H]1O` (stereo partly drawn) [Isomaltotriose, isomaltotriose] the “Product … of Strain C11” value [1] was “++ (a saccharide-transferred product was detected in an amount of at least ten percent through transferring reaction to acceptor)”, the “Product … of Strain C9” value [2] was “++ (a saccharide-transferred product was detected in an amount of at least ten percent through transferring reaction to acceptor)” and the “Enzymatic action, Enzyme of Strain C9” value [3] was “−”. For the same compound, the “Enzymatic action, Enzyme of Strain C11” value [4] was “−”.
maltohexaose was tested, and the “Enzymatic action, Enzyme of Strain C9” value [3] was “+++” and the “Enzymatic action, Enzyme of Strain C11” value [4] was “+++”.
`OC[C@H]1O[C@H](O[C@H]2O[C@H](CO)[C@@H](O[C@H]3O[C@H](CO)[C@@H](O)[C@H](O)[C@H]3O)[C@H](O)[C@H]2O)[C@H](O)[C@@H](O)[C@@H]1O` [Maltosylglucoside, maltosyl glucoside] was tested, and the “Enzymatic action, Enzyme of Strain C9” value [3] was “++” and the “Enzymatic action, Enzyme of Strain C11” value [4] was “++”.
For `OC[C@H]1O[C@H](O[C@H]2[C@H](O)[C@@H](O)[C@@H](OC[C@H]3OC(O)[C@H](O)[C@@H](O)[C@@H]3O)O[C@@H]2CO)[C@H](O)[C@@H](O)[C@@H]1O` (stereo partly drawn) [Isopanose, isopanose], the “Enzymatic action, Enzyme of Strain C9” value [3] was “++” and the “Enzymatic action, Enzyme of Strain C11” value [4] was “++”.
In the case of `OC[C@H]1O[C@H](OC[C@H]2O[C@H](O[C@H]3[C@H](O)[C@@H](O)C(O)O[C@@H]3CO)[C@H](O)[C@@H](O)[C@@H]2O)[C@H](O)[C@@H](O)[C@@H]1O` (stereo partly drawn) [Panose, panose], the “Enzymatic action, Enzyme of Strain C9” value [3] is reported as “−” and the “Enzymatic action, Enzyme of Strain C11” value [4] is reported as “−”.
In the case of maltopentaose, the “Enzymatic action, Enzyme of Strain C9” value [3] is reported as “+++” and the “Enzymatic action, Enzyme of Strain C11” value [4] is reported as “+++”.
With `OC[C@@H](O)[C@@H](O[C@H]1O[C@H](CO)[C@@H](O[C@H]2O[C@H](CO)[C@@H](O)[C@H](O)[C@H]2O)[C@H](O)[C@H]1O)[C@H](O)[C@@H](O)CO` [Maltotriitol, maltotriitol] the “Enzymatic action, Enzyme of Strain C9” value [3] was “+” and the “Enzymatic action, Enzyme of Strain C11” value [4] was “+”.
`OC[C@H]1O[C@@](CO)(O[C@H]2O[C@H](CO)[C@@H](O[C@H]3O[C@H](CO)[C@@H](O)[C@H](O)[C@H]3O)[C@H](O)[C@H]2O)[C@@H](O)[C@@H]1O` [Erlose, erlose] was tested, and the “Enzymatic action, Enzyme of Strain C9” value [3] was “+” and the “Enzymatic action, Enzyme of Strain C11” value [4] was “+”.
In the case of `OC[C@H]1O[C@H](O[C@H]2O[C@H](CO)[C@@H](O)[C@H](O)[C@H]2O)[C@H](O)[C@@H](O)[C@@H]1O` [Trehalose, α,α-trehalose], the “Product … of Strain C11” value [1] is reported as “++ (a saccharide-transferred product was detected in an amount of at least ten percent through transferring reaction to acceptor)”, the “Product … of Strain C9” value [2] is reported as “++ (a saccharide-transferred product was detected in an amount of at least ten percent through transferring reaction to acceptor)” and the “Enzymatic action, Enzyme of Strain C9” value [3] is reported as “−”. The “Enzymatic action, Enzyme of Strain C11” value [4] was “−”.
“isomaltosyl glucoside [Isomaltosylglucoside]” was tested, and the “Enzymatic action, Enzyme of Strain C9” value [3] was “−” and the “Enzymatic action, Enzyme of Strain C11” value [4] was “−”.
In the case of `OC[C@H]1O[C@@H](OC[C@H]2OC(O)[C@H](O)[C@@H](O)[C@@H]2O)[C@H](O)[C@@H](O)[C@@H]1O` (stereo partly drawn) [Gentibiose, gentibiose], the “Product … of Strain C11” value [1] is reported as “++ (a saccharide-transferred product was detected in an amount of at least ten percent through transferring reaction to acceptor)”, the “Product … of Strain C9” value [2] is reported as “++ (a saccharide-transferred product was detected in an amount of at least ten percent through transferring reaction to acceptor)” and the “Enzymatic action, Enzyme of Strain C9” value [3] is reported as “−”. For the same compound, the “Enzymatic action, Enzyme of Strain C11” value [4] was “−”.
In the case of `OC[C@H]1O[C@H](O[C@H]2[C@H](O)[C@@H](O)[C@@H](O[C@H]3[C@H](O)[C@@H](O)[C@@H](O[C@H]4[C@H](O)[C@@H](O)C(O)O[C@@H]4CO)O[C@@H]3CO)O[C@@H]2CO)[C@H](O)[C@@H](O)[C@@H]1O` (stereo partly drawn) [Maltotetraose, maltotetraose], the “Enzymatic action, Enzyme of Strain C9” value [3] is reported as “+++” and the “Enzymatic action, Enzyme of Strain C11” value [4] is reported as “+++”.
With `OC[C@H]1O[C@@H](O[C@H]2O[C@H](CO)[C@@H](O)[C@H](O)[C@H]2O)[C@H](O)[C@@H](O)[C@@H]1O` [Neotrehalose, neotrehalose] the “Enzymatic action, Enzyme of Strain C9” value [3] was “+” and the “Enzymatic action, Enzyme of Strain C11” value [4] was “+”.
`OC[C@H]1O[C@H](O[C@H]2C(O)O[C@H](CO)[C@@H](O)[C@@H]2O)[C@H](O)[C@@H](O)[C@@H]1O` (stereo partly drawn) [Kojibiose, kojibiose] was tested, and the “Enzymatic action, Enzyme of Strain C9” value [3] was “+” and the “Enzymatic action, Enzyme of Strain C11” value [4] was “+”.
For `OC[C@H]1O[C@H](O[C@H]2[C@H](O)[C@@H](O)[C@H](O)O[C@@H]2CO)[C@H](O)[C@@H](O)[C@@H]1O` [Maltose, maltose], the “Enzymatic action, Enzyme of Strain C9” value [3] was “+” and the “Enzymatic action, Enzyme of Strain C11” value [4] was “+”.
For `OC[C@H]1O[C@H](O[C@H]2O[C@H](CO)[C@@H](O)[C@H](O)[C@H]2O[C@H]2O[C@H](CO)[C@@H](O)[C@H](O)[C@H]2O)[C@H](O)[C@@H](O)[C@@H]1O` [Selaginose, selaginose], the “Enzymatic action, Enzyme of Strain C9” value [3] was “−” and the “Enzymatic action, Enzyme of Strain C11” value [4] was “−”.
With `OC[C@H]1O[C@H](O[C@H]2[C@H](O)[C@@H](CO)OC(O)[C@@H]2O)[C@H](O)[C@@H](O)[C@@H]1O` (stereo partly drawn) [Nigerose, nigerose] the “Enzymatic action, Enzyme of Strain C9” value [3] was “+” and the “Enzymatic action, Enzyme of Strain C11” value [4] was “+”.
In the case of maltoheptaose, the “Enzymatic action, Enzyme of Strain C9” value [3] is reported as “+++” and the “Enzymatic action, Enzyme of Strain C11” value [4] is reported as “+++”.
With maltotriose the “Enzymatic action, Enzyme of Strain C9” value [3] was “++” and the “Enzymatic action, Enzyme of Strain C11” value [4] was “++”.
